# Source: PMC7402526, “An in vitro quantitative systems pharmacology approach for deconvolving mechanisms of drug-induced, multilineage cytopenias” (PLoS Computational Biology, 2020)
# Tests used:
# Type in all cases: cell-based, human
# [1] = system: hematopoietic stem cells (HSCs); experiment: Multi-lineage toxicity assay (MLTA), HSCs: concentration-response and QSP model fit; settings: Homo sapiens, Hematopoietic stem cell; for Emax: 144 h, parameter from QSP model fitting, read-out: Emax_drug_HSC; for EC50: QSP model parameter, sheet EC50_parameters, HSCs
# Procedure: (§1) A custom optimized cytokine cocktail was developed using commercially available cytokines (Peprotech, New Jersey) to facilitate simultaneous multi-lineage differentiation and self-renewal of freeze-thawed primary human bone marrow-derived CD34+ cells in SFEM II media (cells and media from StemCell Technologies, Vancouver). Cultures were carried out in ultra-low attachment 96-well plates (Corning, New York) with test article added on day 0 and cultured at 37°C, 85% relative humidity, and 5% CO2 for six days before interrogating drug impact via 17-parameter flow cytometry.
# (§2) The flow cytometry panel used to define hematopoietic subsets was composed of CD34-PECy7, CD90-PECY5, CD38-AF488, CD371-PE, CD45Ra-BV421, CD14-BV605, CD42b-AF647, CD10-PEDazzle594, CD235a-PerCPCy5.5 (BioLegend, California), CD15-BUV395, CD41a-APCH7, CD71-BV786 (BD Biosciences, California), and DAPI for dead cell exclusion (ThermoFisher, California). In short, Day 6 cells were harvested, FcR-blocked (FcR binding inhibitor, ThermoFisher), surface-stained, then analyzed in a buffer containing TruCount Control Beads using a BD LSR Fortessa SORP fitted with a high-throughput sampler (BD Biosciences, California). Data was analyzed in Diva 6.0.2 and exported to CSV where after all cell data was transformed to cell per mL then normalized on a per-donor basis to untreated control wells to determine drug impact.
# (§3) Donor material was collected and cultured as described above. The number of replicate donor samples per drug ranged from 2–7 and varied per drug (S1 Table). Drug treatment was added at time 0 and cells were maintained in culture for 6 days. Concentrations tested for each drug compound are contained in S1 Table. Concentrations were selected to span a range that is clinically useful. Following treatment, cell populations were measured using flow cytometry. We extracted cell counts from flow cytometry data, normalized to bead counts, and corrected for well volume.
# (§4) Each well was normalized to the average of six vehicle control wells. For drugs that were tested across multiple runs of the assay, vehicle-normalized donor data were pooled, and we used the average of these pooled data for further modeling. Normalized data used as model inputs are included in S1 Table.
# (§5) We implemented drug effects using an Emax model for the drug’s effect on each cell type. The 13 maximum effect parameters (EmaxT,C) are unitless and can vary between 0 and 2 and where a subscript, C, represents one of the previously described 13 cell types. We adapted a traditional Emax model using the equations below. We interpreted EmaxT values less than or equal to one as anti-proliferative, and EmaxT values greater than one as indicating a cell-killing mechanism in addition to anti-proliferation. The relationships for these effects are included in the model using the following equations. Eq 2 describes the drug anti-proliferative effect in the net proliferation rate for a given cell type. Eq 3 describes the cell-killing EmaxCK effect.
# (§6) Towards the estimation of mechanistic parameters, we considered different formulations: (a) weighting the objective value to prioritize fitting dead cells and (b) using regularization methodology to encourage a parsimonious solution. We assessed the contributions of these formulations using mean-squared error and goodness of fit plots for drugs with known mechanisms. […] Further, we used L1 regularization to penalize parameters […] to help identify a parsimonious set of parameters to explain drug effects.
# [2] = system: multi-potent progenitors (MPPs); experiment: MLTA, MPPs: concentration-response and QSP model fit; settings: Homo sapiens; for Emax: 144 h, parameter from QSP model fitting, read-out: Emax_drug_MPP; for EC50: QSP model parameter, sheet EC50_parameters, MPPs
# Procedure: as §1, §2, §3, §4, §5, §6
# [3] = system: granulocyte-macrophage progenitor (GMPs); experiment: MLTA, GMPs: concentration-response and QSP model fit; settings: Homo sapiens; QSP model parameter, sheet EC50_parameters; GMPs
# Procedure: as §1, §2, §3, §4, §5, §6
# [4] = system: granulocyte progenitor (Gran-lin prog); experiment: MLTA, GranP: concentration-response and QSP model fit; settings: Homo sapiens; for Emax: 144 h, parameter from QSP model fitting, read-out: Emax_drug_GranP; for EC50: QSP model parameter, sheet EC50_parameters, GranP, read-out: EC50GranP
# Procedure: as §1, §2, §3, §4, §5, §6
# granulocytes (Gran-lin) = experiment: MLTA, Gran: concentration-response and QSP model fit; settings: Homo sapiens; for Emax: 144 h, parameter from QSP model fitting, read-out: Emax_drug_Gran; for EC50: QSP model parameter, sheet EC50_parameters, Gran
# Procedure: as §1, §2, §3, §4, §5, §6
# [5] = system: monocyte progenitors (monocyte prog); experiment: MLTA, MonoP: concentration-response and QSP model fit; settings: Homo sapiens, Monocyte; for Emax: 144 h, parameter from QSP model fitting, read-out: Emax_drug_MonoP; for EC50: QSP model parameter, sheet EC50_parameters, MonoP, read-out: EC50MonoP
# Procedure: as §1, §2, §3, §4, §5, §6
# monocytes (monocyte-lin) = experiment: MLTA, Mono: concentration-response and QSP model fit; settings: Homo sapiens, Monocyte; for Emax: 144 h, parameter from QSP model fitting, read-out: Emax_drug_Mono; for EC50: QSP model parameter, sheet EC50_parameters, Mono
# Procedure: as §1, §2, §3, §4, §5, §6
# [6] = system: neutrophils (neutrophil-lin); experiment: MLTA, Neut: concentration-response and QSP model fit; settings: Homo sapiens, Neutrophil; for Emax: 144 h, parameter from QSP model fitting, read-out: Emax_drug_Neut; for EC50: QSP model parameter, sheet EC50_parameters, Neut
# Procedure: as §1, §2, §3, §4, §5, §6
# [7] = system: early erythroid cells (Eryth I); experiment: MLTA, ErythI: concentration-response and QSP model fit; settings: Homo sapiens; for Emax: 144 h, parameter from QSP model fitting, read-out: Emax_drug_ErythroidI; for EC50: QSP model parameter, sheet EC50_parameters, Erythroid I, read-out: EC50ErythroidI
# Procedure: as §1, §2, §3, §4, §5, §6
# [8] = system: late erythroid cells (Eryth II); experiment: MLTA, ErythII: concentration-response and QSP model fit; settings: Homo sapiens; for Emax: 144 h, parameter from QSP model fitting, read-out: Emax_drug_ErythroidII; for EC50: QSP model parameter, sheet EC50_parameters, Erythroid II, read-out: EC50ErythroidII
# Procedure: as §1, §2, §3, §4, §5, §6
# MK cells (MK-lin) = experiment: MLTA, MK: concentration-response and QSP model fit; settings: Homo sapiens; for Emax: 144 h, parameter from QSP model fitting, read-out: Emax_drug_MK; for EC50: QSP model parameter, sheet EC50_parameters, MK
# Procedure: as §1, §2, §3, §4, §5, §6
# [9] = system: lymphocyte progenitors (LymP); experiment: MLTA, LymP: concentration-response and QSP model fit; settings: Homo sapiens, Lymphocyte; for Emax: 144 h, parameter from QSP model fitting, read-out: Emax_drug_LymP; for EC50: QSP model parameter, sheet EC50_parameters, LymP
# Procedure: as §1, §2, §3, §4, §5, §6
# B cells (B-lin) = experiment: MLTA, B-lin: concentration-response and QSP model fit; settings: Homo sapiens, B-cell; for Emax: 144 h, parameter from QSP model fitting, read-out: Emax_drug_B; for EC50: QSP model parameter, sheet EC50_parameters, B
# Procedure: as §1, §2, §3, §4, §5, §6
smiles,measurement,setting,value
Nc1ccn([C@@H]2O[C@H](CO)[C@@H](O)[C@@H]2O)c(=O)n1 [Cytarabine],Emax,[1],61.3%
same,EC50,[1],17.4 nM
same,Emax,[2],0.0181%
same,EC50,[2],122 nM
same,EC50,[3],3.37 nM
same,Emax,[4],104%
same,EC50,[4],6.96 nM
same,Emax,granulocytes (Gran-lin),0.0324%
same,EC50,granulocytes (Gran-lin),32.7 nM
same,Emax,[5],0.03%
same,EC50,[5],28.7 nM
same,Emax,monocytes (monocyte-lin),20.1%
same,EC50,monocytes (monocyte-lin),63.2 nM
same,Emax,[6],18.3%
same,EC50,[6],6.99 nM
same,Emax,[7],204%
same,EC50,[7],4.31 nM
same,Emax,[8],2.92%
same,EC50,[8],0.101 nM
same,Emax,MK cells (MK-lin),42.8%
same,EC50,MK cells (MK-lin),6.86 nM
same,Emax,[9],0.032%
same,EC50,[9],69.7 nM
same,Emax,B cells (B-lin),83.9%
same,EC50,B cells (B-lin),7.35 nM
CC(C)C[C@H](NC(=O)[C@H](Cc1ccccc1)NC(=O)c1cnccn1)B(O)O [Bortezomib],Emax,[1],134%
same,EC50,[1],105 nM
same,Emax,[2],0.3%
same,EC50,[2],33.1 nM
same,EC50,[3],40.6 nM
same,Emax,[4],0.06%
same,EC50,[4],132 nM
same,Emax,granulocytes (Gran-lin),184%
same,EC50,granulocytes (Gran-lin),68.6 nM
same,Emax,[5],0.17%
same,EC50,[5],70.9 nM
same,Emax,monocytes (monocyte-lin),39%
same,EC50,monocytes (monocyte-lin),83.6 nM
same,Emax,[6],23.9%
same,EC50,[6],108 nM
same,Emax,[7],0.16%
same,EC50,[7],60.8 nM
same,Emax,[8],19.1%
same,EC50,[8],56.5 nM
same,Emax,MK cells (MK-lin),35.3%
same,EC50,MK cells (MK-lin),38.3 nM
same,Emax,[9],0.16%
same,EC50,[9],112 nM
same,Emax,B cells (B-lin),89.8%
same,EC50,B cells (B-lin),36.2 nM
Nc1cccc2c1CN(C1CCC(=O)NC1=O)C2=O (stereo not drawn) [Lenalidomide],Emax,[1],1.33e-06%
same,EC50,[1],1130 nM
same,Emax,[2],4.52e-05%
same,EC50,[2],786 nM
same,EC50,[3],3060 nM
same,Emax,[4],5.98e-05%
same,EC50,[4],937 nM
same,Emax,granulocytes (Gran-lin),9.94e-05%
same,EC50,granulocytes (Gran-lin),3180 nM
same,Emax,[5],3.83e-05%
same,EC50,[5],1050 nM
same,Emax,monocytes (monocyte-lin),3.68e-06%
same,EC50,monocytes (monocyte-lin),292 nM
same,Emax,[6],4.07e-06%
same,EC50,[6],2690 nM
same,Emax,[7],1.17e-05%
same,EC50,[7],76.9 nM
same,Emax,[8],1.48e-06%
same,EC50,[8],262 nM
same,Emax,MK cells (MK-lin),2.23e-06%
same,EC50,MK cells (MK-lin),763 nM
same,Emax,[9],0.0004%
same,EC50,[9],26.7 nM
same,Emax,B cells (B-lin),1.49e-05%
same,EC50,B cells (B-lin),1000 nM
